Test results taken from US6984636B2, “Mitochondrially targeted antioxidants” (Medical Research Council, priority 2002, dated 2006).

Legend:
rat liver mitochondria = assay: Accumulation of Compound 9 in isolated mitochondria (ion selective electrode); assay type: in vitro ADME
Experimental: Liver mitochondria were prepared from female Wistar rats by homogenisation followed by differential centrifugation in medium containing 250 mM sucrose, 10 mM Tris-HCL (pH 7.4) and 1 mM EGTA (Chappell, J. B. and Hansford, R. G., In: Subcellular components: preparation and fractionation (Ed. Birnie G D), pp. 77-91. Butterworths, London, 1972, which is incorporated herein by reference.)
An ion selective electrode for compound 9 was prepared by standard procedures (Kamo, N., et al., Journal of Membrane Biology, 49, 105-121 (1979) and Davey, G. P., et al., Biochemical Journal, 288, 439-443 (1992), which are incorporated herein by reference), and activated by soaking in 100 μM compound 9 for 1-3 days. The electrodes were then inserted into an air-tight chamber of an oxygen electrode enabling simultaneous measurement of oxygen consumption and compound 9, as shown in FIG. 1.
The rat liver mitochondria (2 mg protein/ml) were suspended in KCl medium (120 mM KCl, 10 mM HEPES, pH 7.2, 1 mM EGTA) with additions of rotenone (5 μg/ml) and nigericin (0.6 nM) in a stirred 3 ml system at 30° C. Compound 9 was titrated in 1 μM increments (from 650 to 730s on FIG. 1) and the response of the electrode measured over 0-5 μM of Compound 9. This response was logarithmic with respect to the concentration of Compound 9.
To energise the mitochondria, the respiratory substrate succinate (5 mM) was added (at 800s on FIG. 1). These conditions are known to generate a mitochondrial membrane potential of about 180 mV (Burns, et al., Arch Biochem Biophys, 332,60-68 (1995); Burns and Murphy, Arch Biochem Biophys, 339, 33-39 (1997), which are incorporated herein by reference).

superoxide = assay: Standard assay for superoxide dismutase activity (xanthine oxidase/hypoxanthine, acetylated cytochrome c reduction, A550); assay type: biochemical
Experimental: To see if Compound 9 is catalytically active as a superoxide dismutase mimetic, a standard assay for superoxide dismutase activity was used (Boveris, A., Methods Enzymol., 105, 429-435 (1984), which is incorporated herein by reference).
The incubation conditions were 50 mM KPi, pH 7.5; 1 mM EGTA; 100 μM DTPA (N,N-bis(2-bis[carboxymethyl]amino)ethyl) glycine) at 30° C. to which was added 0.1 unit/ml xanthine oxidase and acetylated cytochrome c (50 μM). After incubation for 2 min, the background rate was measured for 1 min then hypoxanthine (100 μM) was added to initiate superoxide formation (point X in FIG. 2), which provides a continual flux. The rate of superoxide formation is measured by the rate at which the superoxide reduced cytochrome c(III) to cytochrome c(II), which leads to an increase in light absorption at 550 nm (A550). SOD activity causes the superoxide to be converted to hydrogen peroxide thereby decreasing the rate of reduction of cytochrome c (III). In FIG. 2, the initial rate of reduction of cytochrome c (III) can be seen (line A) and on addition of compound 9 (250 nM) this rate of cytochrome c reduction was decreased due to consumption of the superoxide by compound 9 (line B).
The above experiments were repeated using various concentrations of Compound 9 and the native superoxide dismutase (Cu, Zn SOD) in order to compare their activity.

xanthine oxidase = assay: Control experiments for inhibition of xanthine oxidase; assay type: biochemical
Chain of xanthine oxidase (P47989 whole entry, species assumed): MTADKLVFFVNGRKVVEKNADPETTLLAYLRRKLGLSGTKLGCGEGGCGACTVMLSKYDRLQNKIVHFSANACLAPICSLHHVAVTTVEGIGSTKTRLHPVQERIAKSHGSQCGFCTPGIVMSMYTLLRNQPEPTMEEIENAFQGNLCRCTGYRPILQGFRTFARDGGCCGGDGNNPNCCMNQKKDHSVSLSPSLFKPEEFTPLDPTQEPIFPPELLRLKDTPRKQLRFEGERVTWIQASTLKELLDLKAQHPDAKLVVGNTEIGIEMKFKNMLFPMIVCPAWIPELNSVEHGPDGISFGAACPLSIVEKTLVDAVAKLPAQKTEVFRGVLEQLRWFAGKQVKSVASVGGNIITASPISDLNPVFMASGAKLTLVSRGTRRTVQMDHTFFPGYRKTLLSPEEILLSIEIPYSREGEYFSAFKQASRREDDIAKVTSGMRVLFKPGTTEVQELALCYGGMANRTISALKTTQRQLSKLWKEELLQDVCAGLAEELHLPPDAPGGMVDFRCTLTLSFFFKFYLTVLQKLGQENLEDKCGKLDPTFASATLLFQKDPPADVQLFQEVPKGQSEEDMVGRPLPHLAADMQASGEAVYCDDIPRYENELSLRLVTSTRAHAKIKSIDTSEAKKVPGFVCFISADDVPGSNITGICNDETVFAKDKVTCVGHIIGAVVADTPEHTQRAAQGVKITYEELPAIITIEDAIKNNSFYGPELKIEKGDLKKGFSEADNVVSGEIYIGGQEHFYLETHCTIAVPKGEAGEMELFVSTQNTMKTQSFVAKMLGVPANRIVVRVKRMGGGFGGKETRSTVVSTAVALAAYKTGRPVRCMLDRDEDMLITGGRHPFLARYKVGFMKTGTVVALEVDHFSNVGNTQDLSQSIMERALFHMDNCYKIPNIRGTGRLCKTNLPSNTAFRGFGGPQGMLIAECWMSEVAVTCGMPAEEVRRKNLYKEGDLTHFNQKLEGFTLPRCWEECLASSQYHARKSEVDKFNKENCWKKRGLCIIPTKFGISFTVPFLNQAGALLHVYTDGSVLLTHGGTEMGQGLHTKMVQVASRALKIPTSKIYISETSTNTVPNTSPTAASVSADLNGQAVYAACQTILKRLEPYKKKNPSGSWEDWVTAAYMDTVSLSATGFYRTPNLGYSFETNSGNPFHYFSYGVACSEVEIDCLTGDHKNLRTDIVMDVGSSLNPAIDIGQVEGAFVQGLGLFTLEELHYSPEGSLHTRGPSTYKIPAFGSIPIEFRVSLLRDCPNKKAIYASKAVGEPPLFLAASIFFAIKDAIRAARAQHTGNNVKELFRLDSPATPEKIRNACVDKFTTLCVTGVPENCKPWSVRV

## [Cl-].[Cl-].[Cl-].[Mn+2].c1ccc([P+](CCCSc2cc3nc(c2)CNC2CCCCC2NCCNC2CCCCC2NC3)(c2ccccc2)c2ccccc2)cc1 [Compound 9, Manganese(II) dichloro((4R, 9R, 14R, 19R)-24-(3-triphenylphosphoniopropane-1-thio)-3, 10, 13, 20, 26-pentaazatetracyclo[20.3.1.0.^4,9.0^14,19]hexacosa-1 (26),-22(23),24-triene) chloride]
Rat liver mitochondria; FCCP 332 nM added to dissipate the membrane potential
  time for reversal of accumulation on addition of the uncoupler FCCP: < 10 s
Rat liver mitochondria; energised (succinate 5 mM) rat liver mitochondria 2 mg protein/ml, KCl medium pH 7.2, 30° C., 0-5 μM compound
  concentration of the compound within mitochondria: about 1.25 nmol/mg protein
Rat liver mitochondria; energised rat liver mitochondria, membrane potential about 180 mV
  accumulation by energised mitochondria: ~500 fold
Rat liver mitochondria; succinate 5 mM added, FIG. 1
  concentration of compound outside the mitochondria after energising with succinate: falls rapidly
superoxide; compound 9 at 250 nM, FIG. 2 line B versus control line A
  rate of cytochrome c reduction: decreased
superoxide; per 1 nmol Compound 9, various concentrations, FIG. 3
  SOD activity of 1 nmol compound expressed as activity of the native enzyme CuZnSOD: about 1 unit
Xanthine oxidase
  inhibition of the activity of xanthine oxidase: does not inhibit
